The source of these data is publication PMC10803289, “Transport and inhibition mechanism of the human SGLT2–MAP17 glucose transporter” (Nature Structural & Molecular Biology, 2023).

Values joined by “and” are separate entries in the source; they are usually repeats but may differ in a detail not shown here. Equal entries are not always repeated.

Data set [1] has as its system β-glucosidase in the intestine. Further details: method as in PMID 21358697. The following applies: O-glucoside hydrolyzed by β-glucosidase in the intestine; cited from earlier work.
Data set [2] deals with nontransfected Expi293 cells (Mock). Description: Nonspecific binding to crude membrane of nontransfected cells (Mock). Further details: species or system human. The following applies: 30 nM canagliflozin; Mock membrane. The protocol: To examine the inhibition of binding to the crude membrane, mammalian Expi293 cells were co-transfected with the hMAP17 and hSGLT2 plasmids, as described. The cells were collected and disrupted by sonication in a hypotonic buffer (50 mM HEPES–NaOH (pH 7.5), 10 mM KCl and protease inhibitor cocktail) or Na^+-free hypotonic buffer (50 mM Tris–HCl (pH 7.5), 10 mM KCl and protease inhibitor cocktail). The cell debris were removed by centrifugation (2,000g, 5 min, 4 °C). The membrane fraction was collected by ultracentrifugation (112,000g, 30 min, 4 °C) and stored at −80 °C before use. The crude membrane (250 μg per sample) was incubated with SGLT2 inhibitor in an assay buffer (100 mM NaCl and 10 mM HEPES/Tris, pH 7.4) or Na^+-free assay buffer (100 mM choline chloride and 10 mM HEPES/Tris, pH 7.4) at room temperature for 2 h. Reactions were terminated by filtration through a GF/C filter plate (Corning) presoaked in assay buffer containing 0.1% bovine serum albumin. The sample in the filter plate was washed three times with the assay buffer and eluted with acetonitrile: water (80:20, v/v). The extract solution from the filter plate was diluted with water containing candesartan as an internal standard, and the SGLT2 inhibitor concentration was quantified via LC–MS/MS.
Nonspecific binding was measured using the crude membrane of nontransfected Expi293 cells. Specific binding was calculated by subtracting nonspecific binding from the binding of hSGLT2-expressing cells. Specific binding was normalized to hSGLT2 protein expression levels, measured via FSEC. The equilibrium dissociation constant (Kd) and maximum number of binding sites (Bmax) were calculated via nonlinear regression in GraphPad Prism 8.4.3. The specific binding of the hSGLT2 mutants was normalized to the Bmax of WT hSGLT2.
The concentrations of the extract solution from the filter plate and of the cell lysate were quantified using a tandem mass spectrometry QTRAP6500 System (SCIEX) coupled with an ACQUITY UPLC system (Waters) using the internal standard method. Mobile phases A and B used 10 mM of ammonium bicarbonate and acetonitrile, respectively.

The target in the next data set is T1, hSGLT2 F453A (Homo sapiens, UniProt P31639, F453A).
T1 sequence (P31639 1-672 F453A): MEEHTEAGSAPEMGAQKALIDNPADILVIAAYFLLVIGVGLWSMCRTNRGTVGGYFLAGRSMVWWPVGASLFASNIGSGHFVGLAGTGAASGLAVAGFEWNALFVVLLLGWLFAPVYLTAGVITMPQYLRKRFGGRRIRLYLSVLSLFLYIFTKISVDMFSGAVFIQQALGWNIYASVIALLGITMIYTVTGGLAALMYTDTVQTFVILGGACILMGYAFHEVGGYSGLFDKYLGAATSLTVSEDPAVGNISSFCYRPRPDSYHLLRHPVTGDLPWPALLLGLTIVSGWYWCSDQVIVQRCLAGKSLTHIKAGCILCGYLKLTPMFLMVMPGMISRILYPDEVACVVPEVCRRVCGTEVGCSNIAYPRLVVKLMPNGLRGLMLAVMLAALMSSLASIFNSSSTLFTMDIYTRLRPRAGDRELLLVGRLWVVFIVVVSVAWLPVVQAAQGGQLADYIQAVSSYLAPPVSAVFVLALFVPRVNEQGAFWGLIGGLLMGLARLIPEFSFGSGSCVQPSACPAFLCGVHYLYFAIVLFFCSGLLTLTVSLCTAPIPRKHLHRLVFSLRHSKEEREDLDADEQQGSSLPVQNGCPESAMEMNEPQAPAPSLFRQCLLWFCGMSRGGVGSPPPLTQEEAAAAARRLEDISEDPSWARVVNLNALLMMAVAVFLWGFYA
T1 sequence (Q13113 1-114 partner): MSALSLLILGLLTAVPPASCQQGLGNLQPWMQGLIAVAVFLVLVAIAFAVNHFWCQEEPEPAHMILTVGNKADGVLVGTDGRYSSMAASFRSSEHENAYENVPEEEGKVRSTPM
Kind of data set: SGLT2 inhibitor-binding assay (AS-MS), crude membrane, F453A mutant. Details: expressed in transfected cells; host or cells: Expi293 cells, crude membrane fraction. The following applies: 30 nM canagliflozin, replicates. An excerpt:
hSGLT2 complementary DNA and human MAP17 cDNA were synthesized and codon-optimized for expression in human cell lines. Both cDNAs were cloned into the pcDNA3.4 vector. The hSGLT2 sequence was fused with an N-terminal signal sequence from human trypsinogen 1, a His10 tag, and sfGFP, followed by a human rhinovirus 3C protease (HRV3C protease) recognition site. Point mutations were introduced into this construct using site-directed mutagenesis. These plasmids were utilized for all experimental procedures conducted in this study.
To examine the inhibition of binding to the crude membrane, mammalian Expi293 cells were co-transfected with the hMAP17 and hSGLT2 plasmids, as described. […] The extract solution from the filter plate was diluted with water containing candesartan as an internal standard, and the SGLT2 inhibitor concentration was quantified via LC–MS/MS.
Nonspecific binding was measured using the crude membrane of nontransfected Expi293 cells. Specific binding was calculated by subtracting nonspecific binding from the binding of hSGLT2-expressing cells. Specific binding was normalized to hSGLT2 protein expression levels, measured via FSEC. The equilibrium dissociation constant (Kd) and maximum number of binding sites (Bmax) were calculated via nonlinear regression in GraphPad Prism 8.4.3. […]

The next data set has as its system SGLT2. Further details: method as in literature. The following applies: referee comment in peer review file; ref literature; cited from earlier work.

With `O=C(CCc1ccc(O)cc1)c1c(O)cc(O)cc1O[C@@H]1O[C@H](CO)[C@@H](O)[C@H](O)[C@H]1O` [Phlorizin], the metabolic stability result in data set [1] is recorded as “poor”.

With `Cc1ccc([C@@H]2O[C@H](CO)[C@@H](O)[C@H](O)[C@H]2O)cc1Cc1ccc(-c2ccc(F)cc2)s1` [Canagliflozin], the “Canagliflozin binding (% of hSGLT2)” value in data set [2] is 2.562 % of hSGLT2 and 2.489 % of hSGLT2 and 1.993 % of hSGLT2. The “Canagliflozin binding (% of WT)” value at hSGLT2 F453A was 4.952 % of WT and 11.6565 % of WT and 16.2768 % of WT. The half-maximal inhibitory concentration (IC50) (in general, the concentration that inhibits the measured activity by half) in the data set on SGLT2 is approximately 2.7 nM.
